Molecular target: T1, acetylcholine muscarinic M1 receptor (Homo sapiens, UniProt P11229)
T1 construct: expressed in transfected cells; host or cells: CHOnfat cells (CHO cells with an NFAT reporter) expressing hM1, kept under Geneticin selection
T1 sequence (P11229 1-460): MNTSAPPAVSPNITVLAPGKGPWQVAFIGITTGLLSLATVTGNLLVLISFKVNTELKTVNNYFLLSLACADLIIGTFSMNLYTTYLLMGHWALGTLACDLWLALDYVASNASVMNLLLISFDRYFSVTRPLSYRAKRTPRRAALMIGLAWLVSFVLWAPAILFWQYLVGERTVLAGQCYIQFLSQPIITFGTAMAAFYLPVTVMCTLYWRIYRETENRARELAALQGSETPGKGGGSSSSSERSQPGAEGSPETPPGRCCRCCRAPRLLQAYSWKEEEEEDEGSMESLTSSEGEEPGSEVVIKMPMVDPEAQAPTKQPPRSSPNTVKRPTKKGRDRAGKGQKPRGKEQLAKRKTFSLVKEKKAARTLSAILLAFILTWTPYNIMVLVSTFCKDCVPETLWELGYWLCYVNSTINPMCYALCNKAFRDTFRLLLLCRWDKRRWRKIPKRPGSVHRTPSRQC
Assay: muscarinic FLIPR assay: intracellular calcium in CHOnfat/hM1 cells, potentiation of EC20 acetylcholine
Assay type: cell-based
Conditions: Table 1; CHOnfat/hM1 cells, FLIPR, EC20 acetylcholine (3 nM final); read-out: M1 Pot.
Method in brief: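 CHOnfat cells stably expressing human M1, Fluo-4AM-loaded, in HBSS with 20 mM HEPES, 2.5 mM probenecid, 1% BSA. Compounds preincubated 4 min (printed "4 mM") before an EC20 acetylcholine challenge (3 nM final). FLIPR intracellular Ca²⁺ signal compared with 3 nM acetylcholine alone to detect potentiation.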

Molecule | EC50
N#CC1(c2ccncn2)CCN(Cc2cc3c(c4ccccc24)CN([C@H]2CCCC[C@@H]2O)C3=O)CC1 [Example 51, 1-({2-[(1S,2S)-2-hydroxycyclohexyl]-3-oxo-2,3-dihydro-1H-benzo[e]isoindol-5-yl}methyl)-4-(pyrimidin-4-yl)piperidine-4-carbonitrile] | 0.017 µM
N#CC1(c2cccc(Cl)n2)CCN(Cc2cc3c(c4ccccc24)CN([C@H]2CCCC[C@@H]2O)C3=O)CC1 [Example 48] | 0.053 µM
CC1(C)CCN(Cc2cc3c(c4ccccc24)CN(C2CCCCC2O)C3=O)CC1 (stereo not drawn) [Example 38, 5-[(4,4-dimethylpiperidin-1-yl)methyl]-2-(2-hydroxycyclohexyl)-1,2-dihydro-3H-benzo[e]isoindol-3-one] | 0.67 µM
CC1CN(Cc2cc3c(c4ccccc24)CN([C@H]2CCCC[C@@H]2O)C3=O)CCN1c1ccccc1 (stereo partly drawn) [Example 78, 2-[(1S,2S)-2-hydroxycyclohexyl]-5-[(3-methyl-4-phenylpiperazin-1-yl)methyl]-1,2-dihydro-3H-benzo[e]isoindol-3-one] | 0.37 µM
O=C1c2cc(CN3CCN(c4ccccn4)CC3)c3ccccc3c2CN1c1ccccc1F [Example 75, 2-(2-fluorophenyl)-5-{[4-(pyridin-2-yl)piperazin-1-yl]methyl}-1,2-dihydro-3H-benzo[e]isoindol-3-one] | 0.078 µM
N#CC1(c2cnccn2)CCN(Cc2cc3c(c4ccccc24)CN([C@H]2CCCC[C@@H]2O)C3=O)CC1 [Example 50, 1-({2-[(1S,2S)-2-hydroxycyclohexyl]-3-oxo-2,3-dihydro-1H-benzo[e]isoindol-5-yl}methyl)-4-(pyrazin-2-yl)piperidine-4-carbonitrile] | 0.031 µM
O=C1c2cc(CN3CCC(C4CC4)CC3)c3ccccc3c2CN1C1CCCCC1O (stereo not drawn) [Example 39, 5-[(4-cyclopropylpiperidin-1-yl)methyl]-2-(2-hydroxycyclohexyl)-1,2-dihydro-3H-benzo[e]isoindol-3-one] | 5.3 µM
N#CC1(c2ccccn2)CCN(Cc2cc3c(c4ccccc24)CN(C2CCCOC2)C3=O)CC1 (stereo not drawn) [Example 55, 1-{[3-oxo-2-(tetrahydro-2H-pyran-3-yl)-2,3-dihydro-1H-benzo[e]isoindol-5-yl]methyl}-4-pyridin-2-ylpiperidine-4-carbonitrile] | 1.5 µM
O=C1c2cc(CN3CCN(c4ccc(F)cc4)CC3)c3ccccc3c2CN1[C@H]1CCCC[C@@H]1O [Example 67, 5-{[4-(4-fluorophenyl)piperazin-1-yl]methyl}-2-[(1S,2S)-2-hydroxycyclohexyl]-1,2-dihydro-3H-benzo[e]isoindol-3-one] | 0.067 µM
O=C1c2cc(CN3CCC(O)CC3)c3ccccc3c2CN1C1CCCCC1O (stereo not drawn) [Example 22, 2-(2-hydroxycyclohexyl)-5-[(4-hydroxypiperidin-1-yl)methyl]-1,2-dihydro-3H-benzo[e]isoindol-3-one] | 0.48 µM
Cc1ccnc(C2(C#N)CCN(Cc3cc4c(c5ccccc35)CN(c3ccccc3F)C4=O)CC2)c1 [Example 63, 1-{[2-(2-fluorophenyl)-3-oxo-2,3-dihydro-1H-benzo[e]isoindol-5-yl]methyl}-4-(4-methylpyridin-2-yl)piperidine-4-carbonitrile] | 0.545 µM
O=C1c2cc(CN3CCN(c4cc5ccccc5cn4)CC3)c3ccccc3c2CN1c1ccccc1F [Example 84, 2-(2-fluorophenyl)-5-[(4-isoquinolin-3-ylpiperazin-1-yl)methyl]-1,2-dihydro-3H-benzo[e]isoindol-3-one] | 3.27 µM
COc1ccc(N2CCN(Cc3cc4c(c5ccccc35)CN([C@H]3CCCC[C@@H]3O)C4=O)CC2)cc1 [Example 69, 2-[(1S,2S)-2-hydroxycyclohexyl]-5-{[4-(4-methoxyphenyl)piperazin-1-yl]methyl}-1,2-dihydro-3H-benzo[e]isoindol-3-one] | 0.049 µM

Same assay, conditions: Table 2; CHOnfat/hM1 cells, FLIPR, EC20 acetylcholine (3 nM final); read-out: M1 Pot.

Molecule | EC50
CC1c2c(cc(CN3CCC(F)(F)CC3)c3cccnc23)C(=O)N1[C@@H]1COCC[C@@H]1O (stereo partly drawn) [Example 106, 1,5-anhydro-2,4-dideoxy-4-{5-[(4,4-difluoropiperidin-1-yl)methyl]-9-methyl-7-oxo-7,9-dihydro-8H-pyrrolo[3,4-h]quinolin-8-yl}-D-erythro-pentitol] | 0.11 µM
COc1ccc(N2CCN(Cc3cc4c(c5ncccc35)C(C)N(C3CCCCC3O)C4=O)CC2)cc1 (stereo not drawn) [Example 169, 8-(2-hydroxycyclohexyl)-5-{[4-(4-methoxyphenyl)piperazin-1-yl]methyl}-9-methyl-8,9-dihydro-7H-pyrrolo[3,4-h]quinolin-7-one] | 0.59 µM
CC1(O)CCN(Cc2cc3c(c4ncccc24)CN(C2CCCCC2O)C3=O)CC1 (stereo not drawn) [Example 101, 8-(2-hydroxycyclohexyl)-5-[(4-hydroxy-4-methylpiperidin-1-yl)methyl]-8,9-dihydro-7H-pyrrolo[3,4-h]quinolin-7-one] | 0.93 µM
1-({8-[(1S,2S)-2-hydroxycyclohexyl]-7-oxo-8,9-dihydro-7H-pyrrolo[3,4-h]quinolin-5-yl}methyl)-4-(6-methoxypyridin-2-yl)piperidine-4-carbonitrile [Example 156] | 0.057 µM
1-({8-[(1S,2S)-2-hydroxycyclohexyl]-7-oxo-8,9-dihydro-7H-pyrrolo[3,4-h]quinolin-5-yl}methyl)-4-(6-methoxypyridin-2-yl)piperidine-4-carbonitrile [Example 155] | 0.52 µM
O=C1c2cc(CN3CCC(c4ccccc4)CC3)c3cccnc3c2CN1C1CCCCC1O (stereo not drawn) [Example 139, 8-(2-hydroxycyclohexyl)-5-[(4-phenylpiperidin-1-yl)methyl]-8,9-dihydro-7H-pyrrolo[3,4-h]quinolin-7-one] | 0.085 µM
CCCC#CC1(F)CCN(Cc2cc3c(c4ncccc24)CN([C@H]2CCCC[C@@H]2O)C3=O)CC1 [Example 125, 5-[(4-fluoro-4-pent-1-yn-1-ylpiperidin-1-yl)methyl]-8-[(1S,2S)-2-hydroxycyclohexyl]-8,9-dihydro-7H-pyrrolo[3,4-h]quinolin-7-one] | 0.13 µM
O=C1c2cc(CN3CCN(c4ccc(F)cc4)CC3)c3cccnc3c2CN1C1CCCCC1O (stereo not drawn) [Example 171, 5-{[4-(4-fluorophenyl)piperazin-1-yl]methyl}-8-(2-hydroxycyclohexyl)-8,9-dihydro-7H-pyrrolo[3,4-h]quinolin-7-one] | 0.023 µM
CCN(CC)Cc1cc2c(c3ncccc13)CN(C1CCCCC1O)C2=O (stereo not drawn) [Example 88, 5-[(diethylamino)methyl]-8-(2-hydroxycyclohexyl)-8,9-dihydro-7H-pyrrolo[3,4-h]quinolin-7-one] | 4 µM
C#CC1CCN(Cc2cc3c(c4ncccc24)CN(C2CCCCC2O)C3=O)CC1 (stereo not drawn) [Example 124, 5-[(4-ethynylpiperidin-1-yl)methyl]-8-(2-hydroxycyclohexyl)-8,9-dihydro-7H-pyrrolo[3,4-h]quinolin-7-one] | 0.044 µM
O=C1c2cc(CN3CCC(O)(c4ccncc4)CC3)c3cccnc3c2CN1C1CCCCC1O (stereo not drawn) [Example 144, 8-(2-hydroxycyclohexyl)-5-[(4-hydroxy-4-pyridin-4-ylpiperidin-1-yl)methyl]-8,9-dihydro-7H-pyrrolo[3,4-h]quinolin-7-one] | 0.51 µM
N#CC1CCN(Cc2cc3c(c4ncccc24)CN([C@H]2CCCC[C@@H]2O)C3=O)CC1 [Example 94, 1-({8-[(1S,2S)-2-hydroxycyclohexyl]-7-oxo-8,9-dihydro-7H-pyrrolo[3,4-h]quinolin-5-yl}methyl)piperidine-4-carbonitrile] | 0.051 µM
C#CC1(F)CCN(Cc2cc3c(c4ncccc24)CN([C@H]2CCCC[C@@H]2O)C3=O)CC1 [Example 103, 5-[(4-ethynyl-4-fluoropiperidin-1-yl)methyl]-8-[(1S,2S)-2-hydroxycyclohexyl]-8,9-dihydro-7H-pyrrolo[3,4-h]quinolin-7-one] | 0.011 µM
O=C1c2cc(CN3CCN(c4ccccc4)CC3)c3cccnc3c2CN1C1CCCCC1O (stereo not drawn) [Example 174, 8-(2-hydroxycyclohexyl)-5-[(4-phenylpiperazin-1-yl)methyl]-8,9-dihydro-7H-pyrrolo[3,4-h]quinolin-7-one] | 0.018 µM
CC1c2c(cc(CN3CCN(c4ccccc4)CC3)c3cccnc23)C(=O)N1C1CCCCC1O (stereo not drawn) [Example 175, 8-(2-hydroxycyclohexyl)-9-methyl-5-[(4-phenylpiperazin-1-yl)methyl]-8,9-dihydro-7H-pyrrolo[3,4-h]quinolin-7-one] | 0.49 µM

Same assay, conditions: Table 3; inflection point calculated from the FLIPR values; EC20 acetylcholine (3 nM final); read-out: IP Value

Molecule | EC50
CCc1cccc(C2(C#N)CCN(Cc3cc4c(c5ccccc35)CN([C@H]3CCCC[C@@H]3O)C4=O)CC2)n1 [Example 5, 4-(6-Ethylpyridin-2-yl)-1-({2-[(1S,2S)-hydroxycyclohexyl]-3-oxo-2,3-dihydro-1H-benzo[e]isoindol-5-yl}methyl)piperidine-4-carbonitrile] | 0.055 µM
O=C1c2cc(CN3CCC(F)(c4ccccn4)CC3)c3ccccc3c2CN1[C@H]1CCCC[C@@H]1O [Example 2, 5-{[4-Fluoro-4-(pyridine-2-yl)piperidine-1-yl]methyl}-2-[(1S,2S)-2-hydroxycyclohexyl]-1,2-dihydro-3H-benzo[e]isoindol-3-one] | 0.058 µM
